Experimental data: publication PMC6429214, “Design, Synthesis and Biological Evaluation of Isoxazole-Based CK1 Inhibitors Modified with Chiral Pyrrolidine Scaffolds” (Molecules, 2019)

What was measured:
Assay in all cases: 33PanQinase panel
Type in all cases: biochemical
[1] = biological target: T1, CK1-alpha1 (Homo sapiens, UniProt P48729); details: CK1-alpha1, 1 µM; read-out: Residual Activity (%)
T1 construct: purchased ProQinase
Outline: (§1)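 Each reaction mix held 1% DMSO and 1 µM test compound; kinase activity was read radiometrically (33P) and normalised to DMSO control as percent residual activity.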

[2] = biological target: T2, EIF2AK3 (Homo sapiens, UniProt Q9NZJ5); details: EIF2AK3, 1 µM; read-out: Residual Activity (%)
T2 construct: purchased ProQinase
Outline: as §1

[3] = biological target: T3, CAMK2G (Homo sapiens, UniProt Q13555); details: read-out: Residual Activity (%)
T3 construct: purchased ProQinase
T3 sequence (Q13555 whole entry): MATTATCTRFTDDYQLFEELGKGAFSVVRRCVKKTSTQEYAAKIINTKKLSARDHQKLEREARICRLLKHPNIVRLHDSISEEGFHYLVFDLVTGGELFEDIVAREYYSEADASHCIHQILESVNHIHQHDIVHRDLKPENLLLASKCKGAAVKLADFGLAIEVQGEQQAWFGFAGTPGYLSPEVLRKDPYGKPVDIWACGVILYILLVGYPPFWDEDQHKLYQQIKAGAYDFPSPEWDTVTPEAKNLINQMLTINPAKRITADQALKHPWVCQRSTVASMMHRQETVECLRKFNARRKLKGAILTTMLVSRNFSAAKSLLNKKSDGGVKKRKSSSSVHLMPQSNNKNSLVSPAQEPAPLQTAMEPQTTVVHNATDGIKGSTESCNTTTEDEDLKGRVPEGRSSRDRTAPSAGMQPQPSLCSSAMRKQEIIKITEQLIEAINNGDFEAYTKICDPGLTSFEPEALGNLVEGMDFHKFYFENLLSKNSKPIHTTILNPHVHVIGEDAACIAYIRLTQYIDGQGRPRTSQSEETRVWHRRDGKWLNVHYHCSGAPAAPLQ
Outline: as §1

[4] = biological target: T4, DNA-PK (Homo sapiens, UniProt P78527); details: read-out: Residual Activity (%)
T4 construct: purchased ProQinase
Outline: as §1

[5] = biological target: T5, JAK2 (Homo sapiens, UniProt O60674); details: JAK2, 1 µM; read-out: Residual Activity (%)
T5 construct: purchased ProQinase
Outline: as §1

[6] = biological target: T6, IKK-alpha (Homo sapiens, UniProt O15111); details: read-out: Residual Activity (%)
T6 construct: purchased ProQinase
T6 sequence (O15111 whole entry): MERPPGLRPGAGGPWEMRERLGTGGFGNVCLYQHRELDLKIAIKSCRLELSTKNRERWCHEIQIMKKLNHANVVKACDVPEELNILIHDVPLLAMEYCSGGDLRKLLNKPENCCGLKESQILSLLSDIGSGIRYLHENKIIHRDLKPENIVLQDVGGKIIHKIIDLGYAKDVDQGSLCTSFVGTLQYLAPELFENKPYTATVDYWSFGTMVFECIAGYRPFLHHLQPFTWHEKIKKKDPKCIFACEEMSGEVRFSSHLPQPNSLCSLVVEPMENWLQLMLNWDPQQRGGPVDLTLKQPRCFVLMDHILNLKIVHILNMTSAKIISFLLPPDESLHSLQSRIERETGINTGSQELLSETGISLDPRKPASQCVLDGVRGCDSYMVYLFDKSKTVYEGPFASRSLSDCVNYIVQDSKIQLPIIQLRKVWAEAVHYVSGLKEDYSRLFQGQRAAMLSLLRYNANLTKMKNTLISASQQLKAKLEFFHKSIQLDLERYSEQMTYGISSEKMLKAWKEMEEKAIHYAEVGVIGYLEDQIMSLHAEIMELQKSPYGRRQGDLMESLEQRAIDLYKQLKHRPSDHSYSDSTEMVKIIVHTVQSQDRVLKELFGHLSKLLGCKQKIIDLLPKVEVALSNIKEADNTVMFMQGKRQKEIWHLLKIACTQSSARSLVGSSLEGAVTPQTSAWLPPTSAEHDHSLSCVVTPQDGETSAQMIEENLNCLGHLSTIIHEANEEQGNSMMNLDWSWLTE
Outline: as §1

[7] = biological target: T7, MEKK3 (Homo sapiens, UniProt Q99759); details: MEKK3, 1 µM; read-out: Residual Activity (%)
T7 construct: purchased ProQinase
Outline: as §1

[8] = biological target: T8, CDK3/CycE1 (Homo sapiens, UniProt Q00526); details: CDK3/CycE1, 1 µM; read-out: Residual Activity (%)
T8 construct: purchased ProQinase
Outline: as §1

[9] = biological target: T9, PKC-nu (Homo sapiens, UniProt O94806); details: read-out: Residual Activity (%)
T9 construct: purchased ProQinase
T9 sequence (O94806 whole entry): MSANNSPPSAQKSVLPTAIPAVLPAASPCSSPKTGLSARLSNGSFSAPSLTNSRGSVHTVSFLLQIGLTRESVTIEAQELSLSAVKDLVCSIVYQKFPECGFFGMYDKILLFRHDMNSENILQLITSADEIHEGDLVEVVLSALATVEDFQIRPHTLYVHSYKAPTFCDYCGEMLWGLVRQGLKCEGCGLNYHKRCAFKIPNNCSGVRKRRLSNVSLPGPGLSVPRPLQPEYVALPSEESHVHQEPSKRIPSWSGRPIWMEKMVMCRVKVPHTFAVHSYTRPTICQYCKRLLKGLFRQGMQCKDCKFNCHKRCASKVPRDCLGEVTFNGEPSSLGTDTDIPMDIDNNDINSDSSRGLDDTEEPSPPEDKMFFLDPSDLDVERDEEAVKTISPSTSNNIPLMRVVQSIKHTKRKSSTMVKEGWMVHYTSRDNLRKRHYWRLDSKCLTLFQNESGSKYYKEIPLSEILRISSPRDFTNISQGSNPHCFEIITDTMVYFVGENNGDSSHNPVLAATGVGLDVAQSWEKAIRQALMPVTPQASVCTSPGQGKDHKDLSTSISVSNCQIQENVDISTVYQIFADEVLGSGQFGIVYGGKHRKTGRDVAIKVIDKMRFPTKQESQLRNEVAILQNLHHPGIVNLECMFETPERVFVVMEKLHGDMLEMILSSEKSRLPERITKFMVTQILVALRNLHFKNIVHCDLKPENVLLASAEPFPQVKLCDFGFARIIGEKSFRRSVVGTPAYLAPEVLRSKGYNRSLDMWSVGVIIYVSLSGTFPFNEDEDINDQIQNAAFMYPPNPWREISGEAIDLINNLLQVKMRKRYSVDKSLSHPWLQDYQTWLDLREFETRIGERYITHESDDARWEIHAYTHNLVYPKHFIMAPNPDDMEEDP
Outline: as §1

[10] = biological target: T10, PLK3 (Homo sapiens, UniProt Q9H4B4); details: PLK3, 1 µM; read-out: Residual Activity (%)
T10 construct: purchased ProQinase
Outline: as §1

[11] = biological target: T11, GRK3 (Homo sapiens, UniProt P35626); details: GRK3, 1 µM; read-out: Residual Activity (%)
T11 construct: purchased ProQinase
T11 sequence (P35626 whole entry): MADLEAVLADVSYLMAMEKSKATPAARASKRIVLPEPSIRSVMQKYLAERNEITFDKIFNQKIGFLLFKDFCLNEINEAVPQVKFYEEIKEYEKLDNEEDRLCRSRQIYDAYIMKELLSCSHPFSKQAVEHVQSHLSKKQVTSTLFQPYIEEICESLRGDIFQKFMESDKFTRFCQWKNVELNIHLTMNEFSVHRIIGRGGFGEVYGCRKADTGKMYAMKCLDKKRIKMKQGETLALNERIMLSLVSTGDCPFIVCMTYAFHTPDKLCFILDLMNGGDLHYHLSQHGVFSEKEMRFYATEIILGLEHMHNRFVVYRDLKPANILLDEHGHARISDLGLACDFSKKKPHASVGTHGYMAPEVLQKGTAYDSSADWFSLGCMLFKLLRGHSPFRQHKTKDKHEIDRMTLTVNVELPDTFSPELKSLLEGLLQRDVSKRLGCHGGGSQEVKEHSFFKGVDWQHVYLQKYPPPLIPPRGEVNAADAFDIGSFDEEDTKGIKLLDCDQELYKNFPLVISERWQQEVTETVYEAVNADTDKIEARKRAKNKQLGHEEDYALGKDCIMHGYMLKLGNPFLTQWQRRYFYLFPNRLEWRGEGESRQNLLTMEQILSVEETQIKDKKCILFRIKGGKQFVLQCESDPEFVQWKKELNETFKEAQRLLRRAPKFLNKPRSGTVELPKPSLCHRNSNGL
Outline: as §1

[12] = biological target: T12, ACV-R1 (Homo sapiens, UniProt Q04771); details: ACV-R1, 1 µM; read-out: Residual Activity (%)
T12 construct: purchased ProQinase
Outline: as §1

[13] = biological target: T13, CDC42BPB (Homo sapiens, UniProt Q9Y5S2); details: read-out: Residual Activity (%)
T13 construct: purchased ProQinase
Outline: as §1

[14] = biological target: T14, CDK4/CycD1 (Homo sapiens, UniProt P11802); details: CDK4/CycD1, 1 µM; read-out: Residual Activity (%)
T14 construct: purchased ProQinase
Outline: as §1

[15] = biological target: T15, EPHA6 (Homo sapiens, UniProt Q9UF33); details: EPHA6, 1 µM; read-out: Residual Activity (%)
T15 construct: purchased ProQinase
Outline: as §1

[16] = biological target: T16, NEK6 (Homo sapiens, UniProt Q9HC98); details: NEK6, 1 µM; read-out: Residual Activity (%)
T16 construct: purchased ProQinase
Outline: as §1

[17] = biological target: T17, PRKG2 (Homo sapiens, UniProt Q13237); details: PRKG2, 1 µM; read-out: Residual Activity (%)
T17 construct: purchased ProQinase
Outline: as §1

[18] = biological target: T18, GRK7 (Homo sapiens, UniProt Q8WTQ7); details: GRK7, 1 µM; read-out: Residual Activity (%)
T18 construct: purchased ProQinase
Outline: as §1

[19] = biological target: T19, WNK3 (Homo sapiens, UniProt Q9BYP7); details: WNK3, 1 µM; read-out: Residual Activity (%)
T19 construct: purchased ProQinase
Outline: as §1

[20] = biological target: T20, PAK1 (Homo sapiens, UniProt Q13153); details: PAK1, 1 µM; read-out: Residual Activity (%)
T20 construct: purchased ProQinase
Outline: as §1

[21] = biological target: T21, PKC-beta1 (Homo sapiens, UniProt P05771); details: PKC-beta1, 1 µM; read-out: Residual Activity (%)
T21 construct: purchased ProQinase
T21 sequence (P05771 whole entry): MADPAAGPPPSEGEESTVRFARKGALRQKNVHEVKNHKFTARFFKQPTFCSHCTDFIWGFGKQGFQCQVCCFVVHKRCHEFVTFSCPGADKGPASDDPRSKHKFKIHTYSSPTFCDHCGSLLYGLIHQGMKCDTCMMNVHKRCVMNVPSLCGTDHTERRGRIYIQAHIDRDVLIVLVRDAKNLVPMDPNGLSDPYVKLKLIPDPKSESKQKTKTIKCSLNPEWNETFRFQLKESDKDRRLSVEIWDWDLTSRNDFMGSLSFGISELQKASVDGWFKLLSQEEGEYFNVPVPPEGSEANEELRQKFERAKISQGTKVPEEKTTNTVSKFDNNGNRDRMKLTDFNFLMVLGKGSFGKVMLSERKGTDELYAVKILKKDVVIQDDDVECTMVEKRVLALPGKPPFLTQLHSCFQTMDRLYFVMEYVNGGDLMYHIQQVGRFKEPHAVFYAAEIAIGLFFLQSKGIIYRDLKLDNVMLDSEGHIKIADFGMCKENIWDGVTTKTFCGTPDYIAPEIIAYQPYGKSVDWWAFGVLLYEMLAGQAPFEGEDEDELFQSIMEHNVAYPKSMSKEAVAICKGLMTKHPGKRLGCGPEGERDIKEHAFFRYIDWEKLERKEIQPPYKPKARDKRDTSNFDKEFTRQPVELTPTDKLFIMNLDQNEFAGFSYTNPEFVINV
Outline: as §1

[22] = biological target: T22, MYLK (Homo sapiens, UniProt Q15746); details: read-out: Residual Activity (%)
T22 construct: purchased ProQinase
Outline: as §1

[23] = biological target: T23, MARK3 (Homo sapiens, UniProt P27448); details: MARK3, 1 µM; read-out: Residual Activity (%)
T23 construct: purchased ProQinase
Outline: as §1

[24] = biological target: T24, COT (Homo sapiens, UniProt P41279); details: read-out: Residual Activity (%)
T24 construct: purchased ProQinase
T24 sequence (P41279 whole entry): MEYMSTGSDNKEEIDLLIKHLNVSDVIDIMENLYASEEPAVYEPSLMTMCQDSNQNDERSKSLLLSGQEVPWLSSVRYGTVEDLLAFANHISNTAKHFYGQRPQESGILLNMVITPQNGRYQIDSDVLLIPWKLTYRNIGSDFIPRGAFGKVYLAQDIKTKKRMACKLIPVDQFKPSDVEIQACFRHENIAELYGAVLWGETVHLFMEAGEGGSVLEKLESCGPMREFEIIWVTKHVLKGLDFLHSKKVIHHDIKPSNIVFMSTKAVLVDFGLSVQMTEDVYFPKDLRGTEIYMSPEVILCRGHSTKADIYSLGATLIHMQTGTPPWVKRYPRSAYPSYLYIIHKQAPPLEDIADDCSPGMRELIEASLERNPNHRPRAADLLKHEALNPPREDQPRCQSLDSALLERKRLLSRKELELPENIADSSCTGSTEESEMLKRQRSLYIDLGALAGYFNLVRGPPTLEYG
Outline: as §1

[25] = biological target: T25, EPHA8 (Homo sapiens, UniProt P29322); details: EPHA8, 1 µM; read-out: Residual Activity (%)
T25 construct: purchased ProQinase
Outline: as §1

[26] = biological target: T26, CDK19/CycC (Homo sapiens, UniProt Q9BWU1); details: read-out: Residual Activity (%)
T26 construct: purchased ProQinase
Outline: as §1

[27] = biological target: T27, MAP4K5 (Homo sapiens, UniProt Q9Y4K4); details: MAP4K5, 1 µM; read-out: Residual Activity (%)
T27 construct: purchased ProQinase
T27 sequence (Q9Y4K4 whole entry): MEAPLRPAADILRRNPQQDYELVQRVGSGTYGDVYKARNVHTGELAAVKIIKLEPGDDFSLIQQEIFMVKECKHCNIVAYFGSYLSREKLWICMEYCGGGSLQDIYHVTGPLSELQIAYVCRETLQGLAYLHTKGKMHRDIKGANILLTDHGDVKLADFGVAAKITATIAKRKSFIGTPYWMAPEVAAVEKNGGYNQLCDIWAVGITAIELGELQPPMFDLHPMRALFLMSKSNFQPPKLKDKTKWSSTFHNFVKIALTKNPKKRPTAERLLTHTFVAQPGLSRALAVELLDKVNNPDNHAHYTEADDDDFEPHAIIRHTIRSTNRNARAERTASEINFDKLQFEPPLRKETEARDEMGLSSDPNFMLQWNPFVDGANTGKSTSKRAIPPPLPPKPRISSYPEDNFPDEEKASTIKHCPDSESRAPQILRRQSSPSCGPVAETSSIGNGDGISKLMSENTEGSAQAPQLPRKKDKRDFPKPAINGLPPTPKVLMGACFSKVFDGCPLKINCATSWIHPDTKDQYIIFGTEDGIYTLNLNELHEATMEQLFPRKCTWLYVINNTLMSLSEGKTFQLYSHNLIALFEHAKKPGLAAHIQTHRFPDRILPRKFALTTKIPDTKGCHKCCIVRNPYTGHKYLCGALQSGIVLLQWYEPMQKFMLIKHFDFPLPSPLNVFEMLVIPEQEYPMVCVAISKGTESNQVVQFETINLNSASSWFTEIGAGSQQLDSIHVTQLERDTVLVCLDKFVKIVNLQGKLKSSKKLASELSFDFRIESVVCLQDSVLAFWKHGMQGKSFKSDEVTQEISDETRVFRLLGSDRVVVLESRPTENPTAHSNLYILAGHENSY
Outline: as §1

For `COc1ccc(-c2cc(C(=O)Nc3cc(-c4c(-c5ccc(F)cc5)noc4C(C)C)ccn3)n(CC3NCC(O)C3O)c2)cc1` (stereo not drawn) [29d], the remaining activity at 1 µM [1] was 16%, the remaining activity at 1 µM [2] was 104% and the remaining activity at 1 µM [3] was 119%. For the same molecule, the remaining activity at 1 µM [4] was 95%, the remaining activity at 1 µM [5] was 80% and the remaining activity at 1 µM [6] was 98%. The remaining activity at 1 µM [7] was 104%, the remaining activity at 1 µM [8] was 103% and the remaining activity at 1 µM [9] was 90%. For the same molecule, the remaining activity at 1 µM [10] was 112%, the remaining activity at 1 µM [11] was 109% and the remaining activity at 1 µM [12] was 105%. The remaining activity at 1 µM [13] was 86%, the remaining activity at 1 µM [14] was 108% and the remaining activity at 1 µM [15] was 108%. The remaining activity at 1 µM [16] was 94%, the remaining activity at 1 µM [17] was 100% and the remaining activity at 1 µM [18] was 107%. The remaining activity at 1 µM [19] was 103%, the remaining activity at 1 µM [20] was 88% and the remaining activity at 1 µM [21] was 116%. For the same molecule, the remaining activity at 1 µM [22] was 106%, the remaining activity at 1 µM [23] was 96% and the remaining activity at 1 µM [24] was 89%. It also gave a remaining activity at 1 µM [25] of 113%, a remaining activity at 1 µM [26] of 84% and a remaining activity at 1 µM [27] of 96%.
